ChEMBL document CHEMBL1201862, “PubChem BioAssay data set” (2004)
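The compound was tested at five concentrations on cells cultured in 96-well plates, with a 48-hour exposure period. Abbreviation: GI50, concentration required for 50% inhibition of growth.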 The source made the active and inactive calls. No stated cut-off is given here; in the data, active = GI50 up to about 1.1 µM and inactive = higher.

What was measured:
Experiment in all cases: DTP human tumour cell line panel, 48 h
[1] = tested on: KM-20L2
[2] = tested on: XF498
[3] = tested on: Malme-3M
[4] = tested on: SK-MEL-5
[5] = tested on: SF-268
[6] = tested on: SR
[7] = tested on: UACC-62
[8] = tested on: CCRF-CEM
[9] = tested on: COLO 205
[10] = tested on: NCI-H226
[11] = tested on: ACHN
[12] = tested on: HT-29
[13] = tested on: NCI-H522
[14] = tested on: NCI-H460
[15] = tested on: CAKI-1
[16] = tested on: HCT-15
[17] = tested on: U-251
[18] = tested on: EKVX
[19] = tested on: LOX IMVI
[20] = tested on: HOP-18
[21] = tested on: UO-31
[22] = tested on: DLD-1
[23] = tested on: OVCAR-3
[24] = tested on: OVCAR-5
[25] = tested on: SW-620
[26] = tested on: SK-OV-3
[27] = tested on: LXFL 529
[28] = tested on: OVCAR-8
[29] = tested on: KM12
[30] = tested on: DMS-273
[31] = tested on: RXF 631
[32] = tested on: HOP-62
[33] = tested on: UACC-257
[34] = tested on: RPMI-8226
[35] = tested on: SF-295
[36] = tested on: SNB-19
[37] = tested on: M14
[38] = tested on: SF-539
[39] = tested on: K562
[40] = tested on: A549
[41] = tested on: HCC 2998
[42] = tested on: M19-MEL
[43] = tested on: SN12C
[44] = tested on: OVCAR-4
[45] = tested on: SNB-75
[46] = tested on: MOLT-4
[47] = tested on: NCI-H23
[48] = tested on: SK-MEL-28
[49] = tested on: SK-MEL-2
[50] = tested on: 786-0
[51] = tested on: IGROV-1
[52] = tested on: MDA-N
[53] = tested on: Hs-578T
[54] = tested on: MDA-MB-231
[55] = tested on: NCI/ADR-RES
[56] = tested on: MCF7
[57] = tested on: DU-145
[58] = tested on: BT-549
[59] = tested on: T47D
[60] = tested on: PC-3
[61] = tested on: MDA-MB-435
[62] = tested on: DMS-114
[63] = tested on: HOP-92
[64] = tested on: SNB-78
[65] = tested on: A498
[66] = tested on: HL-60
[67] = tested on: RXF 393
[68] = tested on: TK-10
[69] = tested on: HCT-116

Measured: GI50

CO/S(=N/S(=O)(=O)c1ccccc1)c1ccccc1[N+](=O)[O-] (centres undefined)
> 100 µM: [16]
inactive: [1] > 100 µM | [2] > 100 µM | [3] > 100 µM | [4] > 100 µM | [5] > 100 µM | [6] > 100 µM | [7] > 100 µM | [8] > 100 µM | [9] > 100 µM | [10] > 100 µM | [11] > 100 µM | [12] > 100 µM | [13] > 100 µM | [14] > 100 µM | [15] > 100 µM | [17] > 100 µM | [18] > 100 µM | [19] > 100 µM | [20] > 100 µM | [21] > 100 µM | [22] > 100 µM | [23] > 100 µM | [24] > 100 µM | [25] > 100 µM | [26] > 100 µM | [27] > 100 µM | [28] > 100 µM | [29] > 100 µM | [30] > 100 µM | [31] > 100 µM | [32] > 100 µM | [33] > 100 µM | [34] > 100 µM | [35] > 100 µM | [36] > 100 µM | [37] > 100 µM | [38] > 100 µM | [39] > 100 µM | [40] > 100 µM | [41] > 100 µM | [42] > 100 µM | [43] > 100 µM | [44] > 100 µM | [45] > 100 µM | [46] > 100 µM | [47] > 100 µM | [48] > 100 µM | [49] > 100 µM | [50] > 100 µM | [51] > 100 µM

CC(C)=CCC1=C(O)C(=O)c2ccccc2C1=O [LAPACHOL]
inactive: [52] 17.4 µM | [2] 42.4 µM | [4] 11.7 µM | [53] 34.8 µM | [10] 53.8 µM | [54] 8.53 µM | [15] 55 µM | [18] 78.7 µM | [55] 32.3 µM | [20] 15.2 µM | [56] 24.4 µM | [57] 36.9 µM | [58] 51.8 µM | [24] > 100 µM | [59] 61.4 µM | [60] 2.92 µM | [31] 22.2 µM | [41] 86.3 µM | [44] 33.7 µM | [45] 57.1 µM | [61] 18.5 µM | [62] 60.3 µM | [63] 79.6 µM | [64] > 100 µM | [49] 35.5 µM | [65] 60.4 µM

O=C(c1ccc(Cl)cc1)c1ccc(OCCCOc2ccc(C(=O)c3ccc(Cl)cc3)cc2Cl)c(Cl)c1
> 100 µM: [16]
inactive: [1] > 100 µM | [2] > 100 µM | [3] > 100 µM | [4] > 100 µM | [6] > 100 µM | [7] > 100 µM | [8] > 100 µM | [9] > 100 µM | [66] > 100 µM | [10] > 100 µM | [11] > 100 µM | [12] > 100 µM | [13] > 100 µM | [14] > 100 µM | [15] > 100 µM | [17] > 100 µM | [18] > 100 µM | [19] > 100 µM | [22] > 100 µM | [23] > 100 µM | [24] > 100 µM | [25] > 100 µM | [26] > 100 µM | [27] > 100 µM | [28] > 100 µM | [29] > 100 µM | [30] > 100 µM | [67] > 100 µM | [31] > 100 µM | [32] > 100 µM | [33] > 100 µM | [34] > 100 µM | [35] > 100 µM | [36] > 100 µM | [37] > 100 µM | [38] > 100 µM | [39] > 100 µM | [40] > 100 µM | [41] > 100 µM | [42] > 100 µM | [43] > 100 µM | [44] > 100 µM | [45] > 100 µM | [46] > 100 µM | [47] > 100 µM | [48] > 100 µM | [68] > 100 µM | [69] > 100 µM | [62] > 100 µM | [63] > 100 µM | [64] > 100 µM | [49] > 100 µM | [50] > 100 µM | [51] > 100 µM

CNS(=O)(=O)NN(C)S(=O)(=O)c1ccc(Cl)cc1
inactive: [1] > 100 µM | [2] > 100 µM | [3] > 100 µM | [4] > 100 µM | [5] > 100 µM | [6] > 100 µM | [7] > 100 µM | [8] > 100 µM | [9] > 100 µM | [66] > 100 µM | [10] > 100 µM | [11] > 100 µM | [12] > 100 µM | [13] > 100 µM | [15] > 100 µM | [17] 83 µM | [18] 98.4 µM | [19] > 100 µM | [21] > 100 µM | [22] > 100 µM | [23] > 100 µM | [25] > 100 µM | [27] > 100 µM | [28] > 100 µM | [29] > 100 µM | [30] > 100 µM | [67] > 100 µM | [31] > 100 µM | [32] > 100 µM | [33] > 100 µM | [34] > 100 µM | [35] > 100 µM | [36] > 100 µM | [37] > 100 µM | [38] > 100 µM | [39] > 100 µM | [40] > 100 µM | [41] > 100 µM | [42] > 100 µM | [43] > 100 µM | [44] > 100 µM | [45] > 100 µM | [46] > 100 µM | [47] > 100 µM | [68] > 100 µM | [69] > 100 µM | [62] > 100 µM | [49] > 100 µM | [65] > 100 µM | [50] > 100 µM | [51] > 100 µM
> 100 µM: [16]
